In patent publication US20050119337A1, “Methods of application of Schisandrin B in the preparation of anticancer medications” (priority 2003, published 2005):
Read-outs that look alike come from different tables or passages of the source.

What was measured:
Type in all cases: cell-based
K562/vcr = assay: Reversal of drug resistance, MTT assay, 48 h; conditions: for IC50: Homo sapiens, read-out: IC50 Control; for IC50 / IC50 Schisandrin B: 48 h; for IC50 Schisandrin B: anticancer drug toward K562/vcr in the presence of Schisandrin B (10 μg/ml); for RF (Reversal Folds): IC50 in the absence of Schisandrin B divided by IC50 in the presence of Schisandrin B (10 μg/ml)
Procedure: To illustrate a method for reversal of drug resistance by application of Schisandrin B, cell lines K562/adr, K562/vcr (X. […] H. […] Cells were cultured in RPMI-1640 medium containing 10% fetal calf serum. […] The logarithmic growing cells were seeded into a 96 well plate (20,000 cells/well). Specific anticancer drugs (set forth in Table 1) and Schisandrin B in combination were added into the wells containing the select cell lines. […] Cell viability was assessed by MTT assays as described in X.

[1] = test system: human leukemia MDR cell line K562/adr; assay: Reversal of drug resistance of K562/adr, MTT assay, 72 h; conditions: for IC50: Homo sapiens, read-out: IC50 Control; for RF (Schisandrin B): IC50 in the absence divided by IC50 in the presence of Schisandrin B (10 μg/ml); for RF (verapamil): IC50 in the absence divided by IC50 in the presence of verapamil (6 μg/ml); for IC50 Schisandrin B: anticancer drug in the presence of Schisandrin B (10 μg/ml); for IC50 verapamil: anticancer drug in the presence of verapamil (6 μg/ml)
Procedure: (§1) In this embodiment, the IC50 of anticancer drugs in the presence or absence of Schisandrin B toward MDR cells was determined.
(§2) MTT assays were carried out in triplicate against human leukemia MDR cell line K562/adr and human epidermoid carcinoma MDR cell line KBV200. MTT assays as described previously (X. Hu, et al., Chemotherapy 41:296-305 (1995)) were used to determine the cytotoxicity of each anticancer drug in the presence or absence of Schisandrin B or verapmil.
Cells were treated with specific anticancer drugs as set forth therein. “Ctrl” represents control cells treated with anticancer drugs in the absence of Schisandrin B or verapamil. “SchB” represents cells treated with anticancer drugs in the presence of Schisandrin B (10 μg/ml).

[2] = test system: human epidermoid carcinoma MDR cell line KBV200; assay: Reversal of drug resistance of KBV200, MTT assay, 72 h; conditions: for IC50: Homo sapiens, read-out: IC50 Control; for RF (Schisandrin B): IC50 in the absence / IC50 in the presence of Schisandrin B (10 μg/ml); for RF (Schisandrin B) / RF (verapamil) / IC50 Schisandrin B / IC50 verapamil: KBV200; for RF (verapamil): IC50 in the absence / IC50 in the presence of verapamil (6 μg/ml); for IC50 Schisandrin B: anticancer drug in the presence of Schisandrin B (10 μg/ml); for IC50 verapamil: anticancer drug in the presence of verapamil (6 μg/ml)
Procedure: as §1, §2
Cells were treated with specific anticancer drugs as set forth therein. […] “SchB” represents cells treated with anticancer drugs in the presence of Schisandrin B (10 μg/ml).

[3] = anticancer drug toward K562/vcr in the absence of Schisandrin B
[4] = anticancer drug alone, K562/adr, 72 h
[5] = anticancer drug alone, KBV200, 72 h

IC50 (K562/vcr; [3]) [µg/mL]	IC50 Schisandrin B (K562/vcr) [µg/mL]	IC50 [1, 4] [µg/mL]	IC50 Schisandrin B ([1]; K562/adr) [µg/mL]	IC50 verapamil ([1]; K562/adr) [µg/mL]	IC50 [2, 5] [µg/mL]	IC50 Schisandrin B [2] [µg/mL]	IC50 verapamil [2] [µg/mL]	SMILES	RF (Reversal Folds) (K562/vcr)	RF (Schisandrin B) ([1]; K562/adr)	RF (verapamil) ([1]; K562/adr)	RF (Schisandrin B) [2]	RF (verapamil) [2]	IC50 Control [1, 4] [µg/mL]	IC50 Control [2, 5] [µg/mL]	IC50 (K562/vcr; K562/VCR) [µg/mL]	IC50 ([1]; K562/Adr, 72 h) [µg/mL]	IC50 ([2]; KBv200, 72 h) [µg/mL]
> 10	>10							CN(Cc1cnc2nc(N)nc(N)c2n1)c1ccc(C(=O)N[C@@H](CCC(=O)O)C(=O)O)cc1 [Methotrexate, methotrexate]										
0.55 ± 0.02	0.050 ± 0.01	0.428 ± 0.108	0.0964 ± 0.0312	0.0701 ± 0.0042	0.526 ± 0.199	0.1064 ± 0.0812	0.1108 ± 0.0076	COC(=O)C[C@](O)(CCCC(C)(C)O)C(=O)O[C@@H]1C(OC)=C[C@]23CCCN2CCc2cc4c(cc2[C@H]13)OCO4 [Homoharringtonine]	11	4.44	6.1	4.94	4.74					
2.56 ± 0.84	0.44 ± 0.14	1.32 ± 0.322	0.3033 ± 0.0812	0.2218 ± 0.0909	0.988 ± 0.152	0.1033 ± 0.0545	0.1226 ± 0.082	COc1cccc2c1C(=O)c1c(O)c3c(c(O)c1C2=O)C[C@@](O)(C(=O)CO)C[C@@H]3O[C@H]1C[C@H](N)[C@@H](O)[C@H](C)O1 [Epirubicin, epirubicin]	5.81	4.35	5.95	9.56	8.06					
> 20	1.34 ± 0.08	0.916 ± 0.238	0.1486 ± 0.0554	0.0872 ± 0.0236	> 20	0.1572 ± 0.0946	0.9872 ± 0.01555	CC[C@]1(O)C[C@H]2CN(CCc3c([nH]c4ccccc34)[C@@](C(=O)OC)(c3cc4c(cc3OC)N(C=O)[C@H]3[C@@](O)(C(=O)OC)[C@H](OC(C)=O)[C@]5(CC)C=CCN6CC[C@]43[C@@H]65)C2)C1 [Vincristine, vincristine]	>14.9	6.2	10.51	127.2	20.26					
		0.342 ± 0.132	0.01913 ± 0.0208	0.0143 ± 0.0093	0.089 ± 0.0079	0.0316 ± 0.0019	0.0329 ± 0.0079	CC(=O)O[C@H]1C(=O)[C@@]2(C)[C@H]([C@H](OC(=O)c3ccccc3)[C@]3(O)C[C@H](OC(=O)[C@H](O)[C@@H](NC(=O)c4ccccc4)c4ccccc4)C(C)=C1C3(C)C)[C@]1(OC(C)=O)CO[C@@H]1C[C@@H]2O [Taxol, taxol]		17.89	23.94	2.82	2.71					

The next lines start with the molecule.

SMILES	IC50 (K562/vcr; [3]) [µg/mL]	IC50 Schisandrin B (K562/vcr) [µg/mL]	IC50 [1, 4] [µg/mL]	IC50 Schisandrin B ([1]; K562/adr) [µg/mL]	IC50 verapamil ([1]; K562/adr) [µg/mL]	IC50 [2, 5] [µg/mL]	IC50 Schisandrin B [2] [µg/mL]	IC50 verapamil [2] [µg/mL]	RF (Reversal Folds) (K562/vcr)	RF (Schisandrin B) ([1]; K562/adr)	RF (verapamil) ([1]; K562/adr)	RF (Schisandrin B) [2]	RF (verapamil) [2]	IC50 Control [1, 4] [µg/mL]	IC50 Control [2, 5] [µg/mL]	IC50 (K562/vcr; K562/VCR) [µg/mL]	IC50 ([1]; K562/Adr, 72 h) [µg/mL]	IC50 ([2]; KBv200, 72 h) [µg/mL]
CC[C@@]1(O)C(=O)OCc2c1cc1n(c2=O)Cc2cc3cc(O)ccc3nc2-1 [Hydroxycamptothecine]				0.0417 ± 0.062	0.0432 ± 0.0205		0.0527 ± 0.0613	0.0468 ± 0.0254		8.84	8.53	3.07	3.48	0.3688 ± 0.0875	0.1618 ± 0.1501			
COc1cccc2c1C(=O)c1c(O)c3c(c(O)c1C2=O)C[C@@](O)(C(C)=O)C[C@@H]3O[C@H]1C[C@H](N)[C@H](O)[C@H](C)O1 [Daunorubicin, daunorubicin]		0.011 ± 0.0001		0.0977 ± 0.063	0.0791 ± 0.0313		0.0913 ± 0.003	0.0555 ± 0.0175	40.9	5.16	6.38	3.34	5.49			0.45 ± 0.25	0.505 ± 0.0728	0.305 ± 0.0728
O=C1c2c(O)ccc(O)c2C(=O)c2c(NCCNCCO)ccc(NCCNCCO)c21 [Mitoxantron, mitoxantron]	0.79 ± 0.33	0.20 ± 0.06	0.105 ± 0.0356	<0.01	<0.01	0.0906 ± 0.0456	<0.01	<0.01	4.0	>10.52	>10.52	>9.06	>9.06					
